The source of these data is patent publication US8470867B2, “Sigma receptor inhibitors” (Laboratorios Del Dr. Esteve, S.A., priority 2004, dated 2013).

The subject of data set [1] is capsaicin-induced mechanical allodynia. Description: Effect on capsaicin in development of mechanical allodynia (von Frey filaments). Type of data set: in vivo. The note with it: mice. The protocol: This model uses the von-Frey Filaments and is a model to test the effects or symptoms of neuropathic pain, allodynia etc.
• The injection of 1 μg of capsaicin to experimental animals produces acute pain followed by hyperalgesia/allodynia • The mechanisms involved in capsaicin-induced acute pain and hyperalgesia are relatively well known (mainly activation of peripheral nociceptors and sensitization of spinal cord neurons, respectively)
After habituation mice were according to FIG. 1 first treated with the test-compound (or solvent in controls). Then 1 μg capsaicin (1% DMSO) is injected into their paw resulting in developing pain in the effected paw. The effected paw is then treated with a mechanical stimulus and the latency time before the paw is withdrawn is measured.

For data set [2], the target named is T1, σ2-receptor (Mus musculus, UniProt Q8VD00).
T1 construct: brains from sigma receptor type I (σ1) knockout mice were homogenized; from tissue; host or cells: brain membranes of σ1 knockout mice
T1 sequence (Q8VD00 1-176): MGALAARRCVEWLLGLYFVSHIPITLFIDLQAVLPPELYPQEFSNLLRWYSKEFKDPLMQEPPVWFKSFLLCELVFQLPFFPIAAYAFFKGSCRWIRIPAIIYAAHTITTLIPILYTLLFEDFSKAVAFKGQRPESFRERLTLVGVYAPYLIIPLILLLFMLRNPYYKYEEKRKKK
Description: Sigma-2 receptor binding, [3H]-DTG, brains from σ1 knockout mice. Set-up: % Binding σ2: dose or concentration left out as unconfirmed. As for the experimental part: Binding studies for σ2-receptor were performed as described ([…] et al., 1991) with some modifications. In brief, brains from sigma receptor type I (σ1) knockout mice were homogenized in a volume of 10 mL/g tissue net weight of ice-cold 10 mM Tris-HCl, pH 7.4, containing 320 mM sucrose (Tris-sucrose buffer) with a Potter-Elvehjem homogenizer (10 strokes at 500 r.p.m.) The homogenates were then centrifuged at 1000 g for […] at 4° C., and the supernatants were saved. The pellets were resuspended by vortexing in 2 mL/g ice-cold Tris-sucrose buffer and centrifuged again at 1000 g for 10 min. The combined 1000 g supernatants were centrifuged at 31000 g for 15 min at 4° C. The pellets were resuspended by vortexing in 3 mL/g 10 mM Tris-HCl, pH 7.4, and the suspension was kept at 25° C. for 15 min. Following centrifugation at 31000 g for 15 min, the pellets were resuspended by gentle Potter Elvehjem homogenization to a volume of 1.53 mL/g in 10 mM Tris-HCl pH 7.4. The assay tubes contained 10 μL of [^3H]-DTG (final concentration of 3 nM), 400 μL of the tissue suspension (5.3 mL/g in 50 mM Tris-HCl, pH 8.0) to a final assay volume of 0.5 mL. […] The amount of bound radioactivity was determined by liquid scintillation spectrometry using a Wallac Winspectral 1414 liquid scintillation counter. Protein concentrations were determined by the method of Lowry et al. (1951).

Data set [3] concerns psychosis. The note with it: cited from earlier work.
For data set [4], the target named is sigma (σ-2) site (Homo sapiens, UniProt Q5BJF2). The following applies: cited from earlier work.
The target in data set [5] is sigma 1 (σ-1) site (Homo sapiens, UniProt Q99720). The following applies: cited from earlier work.
Sequence of sigma 1 (σ-1) site (Q99720 whole entry): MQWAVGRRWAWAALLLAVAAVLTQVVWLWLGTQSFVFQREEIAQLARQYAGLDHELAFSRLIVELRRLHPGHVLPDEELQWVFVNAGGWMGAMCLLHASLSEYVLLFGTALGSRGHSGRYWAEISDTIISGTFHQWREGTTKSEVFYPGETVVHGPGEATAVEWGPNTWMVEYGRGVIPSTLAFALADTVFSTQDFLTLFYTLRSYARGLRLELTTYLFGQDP

Sequence of sigma (σ-2) site (Q5BJF2 whole entry): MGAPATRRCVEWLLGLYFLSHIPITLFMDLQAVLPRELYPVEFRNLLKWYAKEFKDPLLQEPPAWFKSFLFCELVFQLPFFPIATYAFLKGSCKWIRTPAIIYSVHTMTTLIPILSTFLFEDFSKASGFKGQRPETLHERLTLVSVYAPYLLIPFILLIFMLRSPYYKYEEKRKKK

With `Cc1cc(OCCN2CCOCC2)nn1-c1ccc(Cl)c(Cl)c1` [Example 1, 4-{2-(1-(3,4-Dichlorophenyl)-5-methyl-1H pyrazol-3-yloxy)ethyl}morpholine], the melting point fell in the range of 179 to 182 °C. For the same compound, the “analgesia in capsaicin-induced neuropathic pain, dose dependency (FIG. 2)” value in data set [1] (1 μg capsaicin into paw, von Frey filaments) was “dose dependency of the treatment”. For the same compound, the “efficacy depending on the force of the von-Frey filaments (FIG. 3)” value in data set [1] (1 μg capsaicin, 0.5 g typically in the range of neuropathic pain/allodynia) is given as “effective specifically in neuropathic pain or mechanical allodynia”. For the same compound, in data set [2], the “% Binding σ2” value came out at 3.7% and the Ki was > 10 µM.

For `C[C@@H]1CN(CCCn2c3ccccc3c3ccccc32)C[C@H](C)N1` [rimcazole], in data set [3], the “clinical effects in the treatment of psychosis” value is given as “clinically shows effects in the treatment of psychosis”.

Regarding SKF 10047, the “affinity for the sigma (σ-2) site” value in data set [4] is on record as “micromolar affinity”. Besides, the “affinity for the sigma 1 (σ-1) site” value in data set [5] is on record as “nanomolar affinity”.
